Assay results taken from patent US20230050653A1, “ROCK INHIBITOR AND PREPARATION METHOD THEREFOR AND USE THEREOF” (WUHAN LL SCIENCE AND TECHNOLOGY DEVELOPMENT CO., LTD., priority 2019, published 2023).
pIC50: −log10 of the molar value.

Key:
[1] = biological target: T1, ROCK2 kinase (Homo sapiens, UniProt O75116); experiment: In vitro evaluation of ROCK2 kinase activity (HTRF KinEASE-STK time-resolved fluorometric assay); format: biochemical
T1 construct: purchased Invitrogen PV3759
Description: ROCK2 activity screening. ROCK2 activity was detected using a 96-well (Cisbio) time-resolved fluorometric assay. The assay for ROCK2 was performed in the following assay buffer: 5 mM MgCl2 (Sigma), 1 mM DTT (Sigma) and 1× kinase buffer. The kinase buffer was used for dilution. 7.5 μL of ROCK2 kinase (Invitrogen, PV3759) was added to a 96-well microplate to reach a final concentration of 0.4 ng/μL, and then 0.25 μL of test compound (DMSO content: 1% (volume fraction)) was added. The mixture was incubated at room temperature for 0.5 h. To start the reaction, the kinase buffer was used to mix ATP (Aladdin) and the substrate STK-substrate 2-biotin. 7.5 μL of the mixed solution was added to the microplate to reach final concentrations of 6.739 μM and 1 μM. The resulting mixture was incubated for 2 h at room temperature. 5 mL of detection buffer was mixed with STK antibody-Cryptate, and then an appropriate volume of the mixture was mixed with an equal volume of streptavidin-XL665. 10 μL of the resulting mixture was added to the microplate to stop the reaction. After further incubation for about 1 h, the microplate was read on a Molecular Devices SpectraMax i3x multifunctional microplate reader. The kinase buffer, the STK-substrate 2-biotin, the detection buffer, the STK antibody-Cryptate, and the streptavidin-XL665 were all from HTRF KinEASE-STK kit (Cisbio, 1000 tests, 61[…]).

[2] = biological target: T2, ROCK1 kinase (Homo sapiens, UniProt Q13464); experiment: In vitro evaluation of ROCK1 kinase selectivity (HTRF KinEASE-STK time-resolved fluorometric assay); format: biochemical
T2 construct: purchased Invitrogen
T2 sequence (Q13464 whole entry): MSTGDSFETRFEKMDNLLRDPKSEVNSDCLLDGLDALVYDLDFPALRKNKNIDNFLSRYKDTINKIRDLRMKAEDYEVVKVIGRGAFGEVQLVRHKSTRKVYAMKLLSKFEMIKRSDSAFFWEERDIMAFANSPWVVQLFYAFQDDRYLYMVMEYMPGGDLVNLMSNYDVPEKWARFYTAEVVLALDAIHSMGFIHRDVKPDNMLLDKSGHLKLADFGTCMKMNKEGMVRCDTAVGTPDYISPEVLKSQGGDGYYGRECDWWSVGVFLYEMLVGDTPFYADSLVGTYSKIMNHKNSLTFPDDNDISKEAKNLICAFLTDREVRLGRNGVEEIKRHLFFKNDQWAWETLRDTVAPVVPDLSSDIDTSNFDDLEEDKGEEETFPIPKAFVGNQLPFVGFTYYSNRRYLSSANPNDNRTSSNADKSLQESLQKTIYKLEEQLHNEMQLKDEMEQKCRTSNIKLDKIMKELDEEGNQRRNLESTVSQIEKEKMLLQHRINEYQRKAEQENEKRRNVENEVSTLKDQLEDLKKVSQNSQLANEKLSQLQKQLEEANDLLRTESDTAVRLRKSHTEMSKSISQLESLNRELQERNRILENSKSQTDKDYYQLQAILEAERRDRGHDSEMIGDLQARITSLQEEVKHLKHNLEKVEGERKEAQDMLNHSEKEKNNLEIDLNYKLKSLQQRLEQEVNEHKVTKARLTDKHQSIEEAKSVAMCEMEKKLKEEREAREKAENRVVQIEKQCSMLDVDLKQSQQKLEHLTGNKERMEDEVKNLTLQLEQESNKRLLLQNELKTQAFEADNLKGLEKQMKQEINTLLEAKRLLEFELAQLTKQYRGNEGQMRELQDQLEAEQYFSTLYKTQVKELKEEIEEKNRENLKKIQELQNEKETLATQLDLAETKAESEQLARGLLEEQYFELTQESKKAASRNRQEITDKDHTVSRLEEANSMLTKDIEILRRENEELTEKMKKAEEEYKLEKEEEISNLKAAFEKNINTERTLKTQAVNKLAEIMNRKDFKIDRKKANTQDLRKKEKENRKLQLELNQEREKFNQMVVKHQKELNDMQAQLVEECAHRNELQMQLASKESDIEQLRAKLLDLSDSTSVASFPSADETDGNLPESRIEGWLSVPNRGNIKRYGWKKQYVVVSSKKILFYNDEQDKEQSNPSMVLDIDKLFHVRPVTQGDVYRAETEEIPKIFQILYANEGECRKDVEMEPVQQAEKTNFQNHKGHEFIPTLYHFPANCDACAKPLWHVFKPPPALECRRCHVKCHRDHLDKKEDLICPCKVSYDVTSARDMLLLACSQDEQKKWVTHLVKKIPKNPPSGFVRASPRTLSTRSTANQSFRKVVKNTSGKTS
Description: ROCK1 activity was detected using a 96-well (Cisbio) time-resolved fluorometric assay. The assay for ROCK1 was performed in the following assay buffer: 5 mM MgCl2 (Sigma), 1 mM DTT (Sigma) and 1× kinase buffer. The kinase buffer was used for dilution. 7.5 μL of ROCK1 kinase (Invitrogen) was added to a 96-well microplate to reach a final concentration of 0.4 ng/μL, and then 0.25 μL of test compound (DMSO content: 1%) was added. The mixture was incubated at room temperature for 0.5 h. To start the reaction, the kinase buffer was also used to mix ATP (Aladdin) and the substrate STK-substrate 2-biotin. 7.5 μL of the mixed solution was added to the microplate to reach final concentrations of 3.53 μM and 1 μM. The resulting mixture was incubated for 2 h at room temperature. […] was mixed with STK antibody-Cryptate, and then an appropriate volume of the mixture was mixed with an equal volume of streptavidin-XL665. 10 μL of the resulting mixture was added to stop the reaction. After further incubation for about 1 h, the microplate was read on a Molecular Devices SpectraMax i3x multifunctional microplate reader. The kinase buffer, the STK-substrate 2-biotin, the detection buffer, the STK antibody-Cryptate, and the streptavidin-XL665 were all from HTRF KinEASE-STK kit (Cisbio, 1000 tests, 61[…]).

[3] = In vitro cytotoxicity assay in HepG2 cells, CCK-8 method; settings: human
Description: In vitro cytotoxicity assay for the compounds disclosed herein was performed in HepG2 cells using the CCK-8 method. HepG2 cells (Beina Bio) in the logarithmic growth phase were collected, the concentration of cell suspension was adjusted, and then the cells were plated on a 96-well cell culture plate at 50,000 cells/well. The cells were then incubated overnight in a cell incubator (5%, 37° C.), and after 80-90% cell confluence was achieved, test compound at each concentration gradient or vehicle (DMSO) was added after medium change. The resulting mixture was incubated in the cell incubator (5%, 37° C.) for 48 h. After the treatment, the medium in the plate was discarded. The plate was washed twice with PBS, added with CCK-8 working solution (Beyotime) at 100 μL per well, and then incubated at 37° C. for 1.5 h in the dark. Absorbance at OD450 nm was measured for each well on a microplate reader, and CC50 value of each compound was analyzed and calculated.

[4] = In vivo pharmacokinetic study in mice; settings: mouse, plasma
Text: In Vivo Pharmacokinetic Study of Compounds Disclosed Herein in Mice SPF-grade mice (SPF (Beijing) Biotechnology Co., Ltd.) were fasted overnight (without water deprivation) after adaptive feeding, and then received the compound of the present disclosure by intragastrical administration and bolus injection at tail vein. After administration, plasma of mice was collected at specific time points, and the concentration of the compound in the plasma was detected by LC-MS/MS (AB SCIEX Qtrap4500). The PK parameters of the compounds were statistically analyzed and calculated (WinNonlin V5.2, Pharsight) to show the pharmacokinetic properties of the compounds in mice.

T1 sequence (O75116 whole entry): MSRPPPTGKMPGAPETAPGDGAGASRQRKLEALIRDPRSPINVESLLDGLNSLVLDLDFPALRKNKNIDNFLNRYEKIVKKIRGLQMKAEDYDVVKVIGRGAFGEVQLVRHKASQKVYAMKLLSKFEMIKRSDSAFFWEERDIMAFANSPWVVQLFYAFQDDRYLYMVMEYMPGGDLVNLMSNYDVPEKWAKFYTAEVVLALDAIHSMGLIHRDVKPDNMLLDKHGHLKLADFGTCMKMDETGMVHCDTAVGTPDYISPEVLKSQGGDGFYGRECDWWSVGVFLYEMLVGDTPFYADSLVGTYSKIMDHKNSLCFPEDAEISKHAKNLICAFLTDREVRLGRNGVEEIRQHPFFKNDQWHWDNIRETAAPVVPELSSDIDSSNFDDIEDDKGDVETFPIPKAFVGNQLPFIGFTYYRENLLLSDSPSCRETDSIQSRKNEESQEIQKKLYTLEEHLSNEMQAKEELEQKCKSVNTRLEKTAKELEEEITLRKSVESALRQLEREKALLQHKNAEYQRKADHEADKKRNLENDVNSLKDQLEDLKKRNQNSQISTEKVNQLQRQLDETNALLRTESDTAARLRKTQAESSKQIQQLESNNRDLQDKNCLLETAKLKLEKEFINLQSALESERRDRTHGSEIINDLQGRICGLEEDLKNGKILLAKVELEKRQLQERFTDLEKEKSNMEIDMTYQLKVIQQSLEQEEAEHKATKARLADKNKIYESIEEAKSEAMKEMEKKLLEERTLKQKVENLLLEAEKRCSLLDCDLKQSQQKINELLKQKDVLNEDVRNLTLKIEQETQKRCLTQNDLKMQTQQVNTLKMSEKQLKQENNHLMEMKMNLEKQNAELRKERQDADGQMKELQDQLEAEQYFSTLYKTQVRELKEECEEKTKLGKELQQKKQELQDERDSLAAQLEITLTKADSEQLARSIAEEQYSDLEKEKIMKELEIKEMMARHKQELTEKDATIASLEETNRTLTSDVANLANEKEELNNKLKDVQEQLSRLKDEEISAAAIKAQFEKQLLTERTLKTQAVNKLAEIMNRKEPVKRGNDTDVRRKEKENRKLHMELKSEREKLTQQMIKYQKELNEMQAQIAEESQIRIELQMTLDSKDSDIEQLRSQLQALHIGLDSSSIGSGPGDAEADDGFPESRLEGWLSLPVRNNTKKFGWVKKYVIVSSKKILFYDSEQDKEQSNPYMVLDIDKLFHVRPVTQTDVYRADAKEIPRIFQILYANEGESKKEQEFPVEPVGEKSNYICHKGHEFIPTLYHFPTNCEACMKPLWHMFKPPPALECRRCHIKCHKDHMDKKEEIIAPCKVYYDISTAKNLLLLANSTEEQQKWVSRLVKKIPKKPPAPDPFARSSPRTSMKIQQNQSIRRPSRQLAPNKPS

Structure (SMILES) | pIC50 [1] | pIC50 [2] | also measured
COc1cccc(CNC(=O)c2ncn3cc(-c4cn[nH]c4)ccc23)c1 [Compound T361, N-(3-methoxybenzyl)-6-(1H-pyrazol-4-yl)imidazo[1,5-a]pyridine-1-carboxamide] | ≥ 7.30 | 6.30 to 7.30 | CC50 at 48 h [3]: > 100000 nM
O=C(NCc1cccc(OCC2CC2)c1)N1CCc2cc(-c3c[nH]nc3F)c(F)cc21 [Compound T380, N-(3-(cyclopropylmethoxy)benzyl)-6-fluoro-5-(3-fluoro-1H-pyrazol-4-yl)indoline-1-carboxamide] | ≥ 7.30 | 6.30 to 7.30 | CC50 at 48 h [3]: 35300 nM
COc1cc(F)cc(CNC(=O)N2CCc3cc(-c4c[nH]nc4N)c(F)cc32)c1 [Compound T385, 5-(3-amino-1H-pyrazol-4-yl)-6-fluoro-N-(3-fluoro-5-methoxybenzyl)indoline-1-carboxamide] | ≥ 7.30 | 6.30 to 7.30 | CC50 at 48 h [3]: > 100000 nM
COc1cc(F)cc(CNC(=O)N2CCc3cc(-c4cn[nH]c4)ccc3C2)c1 [Compound T201, N-(3-fluoro-5-methoxybenzyl)-6-(1H-pyrazol-4-yl)-3,4-dihydroisoquinoline-2(1H)-carboxamide] | 6.30 to 7.30 | 5.30 to 6.30 | bioavailability ([4]; 3 mg/kg Po vs Iv): 42.4%; AUC(0-t) ([4]; Iv, 3 mg/kg): 413 ng·h/mL; Cmax ([4]; Iv, 3 mg/kg): 704 ng/mL; AUC(0-t) ([4]; Po, 3 mg/kg): 175 ng·h/mL; Cmax ([4]; Po, 3 mg/kg): 95.5 ng/mL
COc1cc(F)cc(CNC(=O)N2CCOc3cc(-c4cn[nH]c4)ccc32)c1 [Compound T205, N-(3-fluoro-5-methoxybenzyl)-7-(1H-pyrazol-4-yl)-2H-benzo[b][1,4]oxazine-4(3H)-carboxamide] | ≥ 7.30 | 6.30 to 7.30 | CC50 at 48 h [3]: > 50000 nM
O=C(NC1CCCC1)c1cccc([C@H](CO)NC(=O)N2CCc3cc(-c4cn[nH]c4)c(F)cc32)c1 [Compound T356-R, (R)-N-(1-(3-(cyclopentylcarbamoyl)phenyl)-2-hydroxyethyl)-6-fluoro-5-(1H-pyrazol-4-yl)indoline-1-carboxamide] | 6.30 to 7.30 | 6.30 to 7.30 | CC50 at 48 h [3]: > 200000 nM
COc1cccc([C@@H](CO)NC(=O)N2CCc3cc(-c4cn[nH]c4)c(F)cc32)c1 [Compound T346] | ≥ 7.30 | ≥ 7.30 | CC50 at 48 h [3]: 45000 nM
COCCOc1cc(F)cc(CNC(=O)N2CCc3cc(-c4cn[nH]c4)ccc32)c1 [Compound T213] | ≥ 7.30 | ≥ 7.30 | –
COc1cc(F)cc([C@@H](C)NC(=O)c2ncn3cc(-c4cn[nH]c4F)ccc23)c1 [Compound T370, (R)-6-(5-fluoro-1H-pyrazol-4-yl)-N-(1-(3-fluoro-5-methoxyphenyl)ethyl)imidazo[1,5-a]pyridine-1-carboxamide] | ≥ 7.30 | ≥ 7.30 | –
COc1cc(CNC(=O)N2CCc3cc(-c4cn[nH]c4F)c(F)cc32)ccc1F [Compound T384, 6-fluoro-5-(5-fluoro-1H-pyrazol-4-yl)-N-(4-fluoro-3-methoxybenzyl)indoline-1-carboxamide] | ≥ 7.30 | ≥ 7.30 | CC50 at 48 h [3]: > 100000 nM
O=C(NCc1cc(F)cc(F)c1)N1CCc2cc(-c3cn[nH]c3)ccc21 [Compound T226] | ≥ 7.30 | 6.30 to 7.30 | –
COc1cc(F)cc(CNC(=O)c2ncn3cc(-c4cn[nH]c4F)ccc23)c1 [Compound T355, 6-(5-fluoro-1H-pyrazol-4-yl)-N-(3-fluoro-5-methoxybenzyl)imidazo[1,5-a]pyridine-1-carboxamide] | ≥ 7.30 | ≥ 7.30 | CC50 at 48 h [3]: > 100000 nM
COc1cc(F)cc(CNC(=O)N2CCc3cc(-c4c[nH]nc4F)c(F)cc32)c1 [Compound T351, 6-fluoro-5-(3-fluoro-1H-pyrazol-4-yl)-N-(3-fluoro-5-methoxybenzyl)indoline-1-carboxamide] | ≥ 7.30 | ≥ 7.30 | –
COc1cc(F)cc(C(CN(C)C)NC(=O)N2CCc3cc(-c4c[nH]nc4F)c(F)cc32)c1 (racemic) [Compound T388, (+/−)N-(2-(dimethylamino)-1-(3-fluoro-5-methoxyphenyl)ethyl)-6-fluoro-5-(3-fluoro-1H-pyrazol-4-yl)indoline-1-carboxamide] | ≥ 7.30 | 6.30 to 7.30 | –
O=C(NC1CCCC1)c1cc(F)cc(C(CO)NC(=O)N2CCc3cc(-c4cn[nH]c4)c(F)cc32)c1 (stereo not drawn) [Compound T389, N-(1-(3-(cyclopentylcarbamoyl)-5-fluorophenyl)-2-hydroxyethyl)-6-fluoro-5-(1H-pyrazol-4-yl)indoline-1-carboxamide] | ≥ 7.30 | ≥ 7.30 | –
COc1cc(F)cc(CNC(=O)N2CCc3cc(-c4c[nH]nn4)ccc32)c1 [Compound T217, N-(3-fluoro-5-methoxybenzyl)-5-(1H-1,2,3-triazol-4-yl)indoline-1-carboxamide] | 6.30 to 7.30 | 6.30 to 7.30 | –
COc1cc(F)cc([C@@H](CO)NC(=O)N2CCc3cc(-c4c[nH]nc4Cl)c(F)cc32)c1 [Compound T359, (S)-5-(3-chloro-1H-pyrazol-4-yl)-6-fluoro-N-(1-(3-fluoro-5-methoxyphenyl)-2-hydroxyethyl)indoline-1-carboxamide] | ≥ 7.30 | 6.30 to 7.30 | –
COc1cc(F)cc(CNC(=O)N2CC(C)(C)c3cc(-c4cn[nH]c4)ccc32)c1 [Compound T223] | ≥ 7.30 | ≥ 7.30 | –
COc1cccc(CCC(=O)N2CCc3cc(-c4c[nH]nc4N)c(F)cc32)c1 [Compound T383] | 5.30 to 6.30 | 5.30 to 6.30 | –
COc1cc(F)cc(CN(C(=O)N2CCc3cc(-c4cn[nH]c4)ccc32)C2CCOCC2)c1 [Compound T215] | 5.30 to 6.30 | 5.30 to 6.30 | –
COc1cc(F)cc(CN(Cc2ccccc2)C(=O)N2CCc3cc(-c4cn[nH]c4)ccc32)c1 [Compound T243] | 5.30 to 6.30 | 5.30 to 6.30 | –
O=C(NCc1ccc2[nH]cnc2c1)N1CCc2cc(-c3cn[nH]c3)ccc21 [Compound T247] | 6.30 to 7.30 | 6.30 to 7.30 | –
O=C(NCc1cc(F)cc(OC(F)(F)F)c1)N1CCc2cc(-c3cn[nH]c3)c(F)cc21 [Compound T349, 6-fluoro-N-(3-fluoro-5-(trifluoromethoxy)benzyl)-5-(1H-pyrazol-4-yl)indoline-1-carboxamide] | 5.30 to 6.30 | 5.30 to 6.30 | –
CC(C)COc1cc(F)cc([C@@H](CO)NC(=O)N2CCc3cc(-c4cn[nH]c4)c(F)cc32)c1 [Compound T354, (S)-6-fluoro-N-(1-(3-fluoro-3-isobutoxyphenyl)-2-hydroxyethyl)-5-(1H-pyrazol-4-yl)indoline-1-carboxamide] | 6.30 to 7.30 | 6.30 to 7.30 | –
O=C(NCc1ccn[nH]1)N1CCc2cc(-c3cn[nH]c3)ccc21 [Compound T240] | 5.30 to 6.30 | 5.30 to 6.30 | –
COc1cc(F)cc(CNC(=O)c2ncn3cc(-c4cn[nH]c4)ccc23)c1 [Compound T238, N-(3-fluoro-5-methoxybenzyl)-6-(1H-pyrazol-4-yl)imidazo[1,5-a]pyridine-1-carboxamide] | ≥ 7.30 | ≥ 7.30 | bioavailability ([4]; 3.4 mg/kg Po vs Iv): 84.6%; AUC(0-t) ([4]; Iv, 3.4 mg/kg): 10500 ng·h/mL; Cmax ([4]; Iv, 3.4 mg/kg): 4940 ng/mL; AUC(0-t) ([4]; Po, 3.4 mg/kg): 8880 ng·h/mL; Cmax ([4]; Po, 3.4 mg/kg): 2130 ng/mL
COc1cc(F)cc([C@@H](CO)NC(=O)N2CCc3cc(-c4c[nH]nc4N)c(F)cc32)c1 [Compound T365, (S′)-5-(3-amino-1H-pyrazol-4-yl)-6-fluoro-N-(1-(3-fluoro-5-methoxyphenyl)-2-hydroxyethyl)indoline-1-carboxamide] | ≥ 7.30 | 6.30 to 7.30 | –
